According to article PMC9632086, “Phosphodiesterase 10A (PDE10A) as a novel target to suppress β-catenin and RAS signaling in epithelial ovarian cancer” (Journal of Ovarian Research, 2022):

Biological target: T1, PDE10A (Homo sapiens, UniProt Q9Y233)
T1 construct: endogenous PDE10A in SKOV3 cells
Experiment: cellular cAMP immunoassay after […] for […] min, parental and empty-vector cells versus PDE10A knockout clones
Format: cell-based

T1 sequence (Q9Y233 whole entry): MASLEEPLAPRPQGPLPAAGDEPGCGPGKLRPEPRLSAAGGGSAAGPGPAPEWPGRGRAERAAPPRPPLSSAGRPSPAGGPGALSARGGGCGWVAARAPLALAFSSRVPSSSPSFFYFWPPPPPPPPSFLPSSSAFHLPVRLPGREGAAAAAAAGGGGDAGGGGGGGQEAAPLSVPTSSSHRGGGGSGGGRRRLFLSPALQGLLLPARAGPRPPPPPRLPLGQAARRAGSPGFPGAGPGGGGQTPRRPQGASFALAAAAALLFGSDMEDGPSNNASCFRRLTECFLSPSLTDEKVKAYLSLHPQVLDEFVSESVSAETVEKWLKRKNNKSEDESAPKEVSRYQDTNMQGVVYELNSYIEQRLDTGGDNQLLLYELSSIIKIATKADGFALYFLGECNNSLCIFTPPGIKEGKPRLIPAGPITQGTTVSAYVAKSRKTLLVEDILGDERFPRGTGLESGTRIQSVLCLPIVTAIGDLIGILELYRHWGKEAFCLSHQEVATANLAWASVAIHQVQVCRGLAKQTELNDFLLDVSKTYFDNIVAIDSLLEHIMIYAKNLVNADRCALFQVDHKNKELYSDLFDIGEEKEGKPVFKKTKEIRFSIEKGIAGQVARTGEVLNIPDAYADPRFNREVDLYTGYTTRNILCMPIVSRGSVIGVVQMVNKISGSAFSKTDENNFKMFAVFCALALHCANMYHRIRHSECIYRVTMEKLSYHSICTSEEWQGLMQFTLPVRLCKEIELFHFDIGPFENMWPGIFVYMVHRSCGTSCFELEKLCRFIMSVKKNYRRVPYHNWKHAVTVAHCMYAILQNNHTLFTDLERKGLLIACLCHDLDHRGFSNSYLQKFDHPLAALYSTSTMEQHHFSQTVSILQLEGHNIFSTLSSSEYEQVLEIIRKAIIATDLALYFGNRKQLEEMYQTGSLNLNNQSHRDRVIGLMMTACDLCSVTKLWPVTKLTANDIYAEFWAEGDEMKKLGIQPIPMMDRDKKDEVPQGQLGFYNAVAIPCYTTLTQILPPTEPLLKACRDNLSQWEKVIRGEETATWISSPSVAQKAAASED

COc1ccc2c(c1)C(CC(=O)Nc1cccnc1)=C(C)/C2=C/c1cc(OC)c(OC)c(OC)c1 [MCI-030]
cellular cAMP level: MCI-030 increased cAMP only in SKOV3 parental and EV 1B9 control cells, but not in the PDE10A KO clones
